# According to US10537521B2 (priority 2016, dated 2020):
# “And” between values parts separate entries of the source, which are not always exact repeats. Equal entries are not always repeated. Structures can show the parent of a compound that is named as a salt. Where two headings read alike, the source gives them in different places.
# Legend:
# [1] = Example 1: multiple-dose randomized 3-way crossover PK study of two IV tramadol regimens vs 100 mg oral q6h; conditions: human, plasma, plasma
# Description: A fitted curve was obtained because the second oral peak was not measured in the study. For the modeling portion of the analysis, a validated Phoenix® WinNonlin® program version 6.4 (Certara) was used for PK analysis, simulation, graphics, tables and statistical calculations. […] For purposes of nonlinear regression, the data were weighted as 1/observed. Predicted concentration-time data were calculated based on the individual fitted PK parameters.
# [2] = standard in vitro and in vivo studies; cited from earlier work
# [3] = tested on: mice and rats; conditions: cited from earlier work
# [4] = Example 4: multiple dose steady-state dose proportionality study, tramadol injection 50/100 mg IV and Ultram tablet 50/100 mg oral q6h; format: in vivo, human; conditions: for Cmax, tramadol, Mean ± SD / Cmin, tramadol, Mean ± SD / Tmax, tramadol, Mean ± SD: steady-state, healthy volunteers
# Description: The study was an open-label, single-period, randomized, parallel treatment design. Subjects received study drug every 6 hours beginning on the morning of Day 1 and ending on the morning of Day 3. The first dose on Day 1 and the last dose on Day 3 were administered after a minimum 10 hour fast.
# [5] = tramadol single […] [100 mg] p.o., humans N=12 male; cited from earlier work
# [6] = cited from earlier work
# [7] = cited from earlier work; for CL/F (total clearance): humans n=10 male
# [8] = loading doses up to 150 mg IV, postoperative; cited from earlier work
# [9] = tested on: experienced opioid abusers; conditions: cited from earlier work
# [10] = tested on: patients undergoing abdominal surgery; conditions: cited from earlier work
# [11] = after oral administration; cited from earlier work
# [12] = tested on: rats and dogs; conditions: repeat-dose toxicity; cited from earlier work
# [13] = Tramadol dosed as 50 mg IV every 6 hours
# [14] = Tramadol dosed as 100 mg IV every 6 hours
# [15] = Tramadol dosed as Oral (Ultram tablet) every 6 hours
compound,measurement,setting,value
"COc1cccc([C@]2(O)CCCC[C@H]2CN(C)C)c1 (racemic) [Tramadol, (±)cis-2-[(dimethylamino)methyl]-1-(3-methoxyphenyl) cyclohexanol hydrochloride]",Cmax,"[1]; iv, 75 mg, Cmax(42-48), 75 mg IV regimen (h 0, 3, 6, then q6h to h 42), steady-state, mean",827 ng/mL
same,Cmax,"[1]; iv, 75 mg, Cmax, 75 mg IV regimen (h 0, 3, 6, then q6h to h 42), mean",932 ng/mL
same,Tmax,"[1]; iv, 75 mg, Tmax(0-3), 75 mg IV regimen (h 0, 3, 6, then q6h to h 42), mean",0.5 h
same,Tmax,"[1]; iv, 75 mg, Tmax(3-6), 75 mg IV regimen (h 0, 3, 6, then q6h to h 42), mean",3.31 h
same,Tmax,"[1]; iv, 75 mg, Tmax(42-48), 75 mg IV regimen (h 0, 3, 6, then q6h to h 42), mean",42.4 h
same,Tmax,"[1]; iv, 75 mg, Tmax, 75 mg IV regimen (h 0, 3, 6, then q6h to h 42), mean",15.9 h
same,AUC(0-t),"[1]; po, 100 mg, AUC0-24, 100 mg oral q6h to h 42, mean",7490 ng·h/mL
same,AUC(0-t),"[1]; po, 100 mg, AUC0-48, 100 mg oral q6h to h 42, mean",19100 ng·h/mL
same,AUC,"[1]; po, 100 mg, AUC24-48, 100 mg oral q6h to h 42, mean",11600 ng·h/mL
same,AUC,"[1]; po, 100 mg, AUCtau 1, 100 mg oral q6h to h 42, first dosing interval, mean",1490 ng·h/mL
same,AUC,"[1]; po, 100 mg, AUCtau n, 100 mg oral q6h to h 42, last dosing interval, mean",3480 ng·h/mL
same,concentration at 6 h,"[1]; po, 100 mg, C6, 100 mg oral q6h to h 42, mean",197 ng/mL
same,concentration at 48 h,"[1]; po, 100 mg, C48 (T48), 100 mg oral q6h to h 42, mean",497 ng/mL
same,concentration at 1 h,"[1]; po, 100 mg, C1 h, 100 mg oral q6h to h 42, mean",278 ng/mL
same,Cmax,"[1]; po, 100 mg, Cmax(0-6), 100 mg oral q6h to h 42, first dose, mean",377 ng/mL
same,Cmax,"[1]; po, 100 mg, Cmax(42-48), 100 mg oral q6h to h 42, steady-state, mean",701 ng/mL
same,Cmax,"[1]; po, 100 mg, Cmax, 100 mg oral q6h to h 42, mean",701 ng/mL
same,Tmax,"[1]; po, 100 mg, Tmax(0-6), 100 mg oral q6h to h 42, mean",1.54 h
same,Tmax,"[1]; po, 100 mg, Tmax(42-48), 100 mg oral q6h to h 42, mean",44 h
same,Tmax,"[1]; po, 100 mg, Tmax, 100 mg oral q6h to h 42, mean",44 h
same,genotoxic potential,[2],no evidence of genotoxic potential
same,carcinogenic potential,[3],no evidence of carcinogenic potential
same,"Cmax, tramadol, Mean ± SD",[4]; [13],541 ± 126 ng/mL
same,"Cmin, tramadol, Mean ± SD",[4]; [13],203 ± 50 ng/mL
same,"Tmax, tramadol, Mean ± SD",[4]; [13],0.375 ± 0.189 h
same,"Cmin, tramadol, Mean ± SD",[4]; Tramadol dosed as 50 mg Oral (Ultram tablet) every 6 hours,213 ± 93 ng/mL
same,"Cmax, tramadol, Mean ± SD",[4]; [14],1250 ± 236 ng/mL
same,"Cmin, tramadol, Mean ± SD",[4]; [14],539 ± 172 ng/mL
same,"Tmax, tramadol, Mean ± SD",[4]; [14],0.406 ± 0.442 h
same,"Cmax, tramadol, Mean ± SD",[4]; [15],703 ± 210 ng/mL
same,"Cmin, tramadol, Mean ± SD",[4]; [15],405 ± 151 ng/mL
same,AUC,"[4]; human, plasma, iv, 50 mg",1970 ± 453 ng·h/mL
same,AUC(0-inf),"[4]; human, plasma, iv, 50 mg",4040 ± 1060 ng·h/mL
same,AUC(0-t),"[4]; human, plasma, iv, 50 mg",4010 ± 1050 ng·h/mL
same,AUC,"[4]; human, plasma, iv, 100 mg",4730 ± 1240 ng·h/mL
same,AUC(0-inf),"[4]; human, plasma, iv, 100 mg",11400 ± 4540 ng·h/mL
same,AUC(0-t),"[4]; human, plasma, iv, 100 mg",11200 ± 4270 ng·h/mL
same,AUC(0-inf),"[4]; human, plasma, po, 50 mg",4450 ± 2110 ng·h/mL
same,AUC(0-t),"[4]; human, plasma, po, 50 mg",4360 ± 2030 ng·h/mL
same,Cmax,"[4]; human, plasma, po, 50 mg",~368 ng/mL
same,AUC(0-t),"[4]; human, plasma, po, 100 mg",8660 ± 4260 ng·h/mL
same,AUC,[5],2177 ± 722 ng·h/mL
same,Cmax,[5],274 ± 75 ng/mL
same,Tmax,[5],1.6 ± 0.5 h
same,t1/2,[5],5.9 ± 0.7 h
same,absolute bioavailability,"[6]; oral, continuous dosing (Liao et al., 1992)",90-100%
same,increase of elimination half-life,[6]; subjects with renal or hepatic impairment,approximately 2 fold
same,absolute bioavailability of the oral dose,"[7]; 100 mg PO vs IV, based on AUC values, hydrochloride",68±13% and 68%
same,first pass metabolism,"[7]; 100 mg PO, estimated",~20%
same,estimated absorption of the oral dose,[7]; 100 mg PO,86-88%
same,CL/F (total clearance),"[7]; 100 mg i.v., hydrochloride",467 ± 124 mL/min
same,CL/F (total clearance),"[7]; 100 mg i.v., listed as tramadol, hydrochloride",710 ± 174 mL/min
same,time to peak serum concentration (tmax),[7]; 100 mg oral dosing,approximately 2 hours
same,CL/F (total clearance),"[7]; 100 mg p.o., hydrochloride",710 ± 174 mL/min
same,CL/F (total clearance),"[7]; 100 mg p.o., listed as tramadol, hydrochloride",467 ± 124 mL/min
same,serious adverse effects,[8],not associated with any serious adverse effects
same,seizure,[9]; 200 mg IV administered over 5 minutes,No seizures were observed
same,seizure,[9]; 300 mg IV delivered over 2.5 minutes,seizure was observed
same,seizure,[9]; 700 mg IV administered over 1 minute,seizure was observed
same,ratings of “liking”,"[9]; tramadol 100 and 200 mg IV, morphine 10 and 20 mg IV, over 5 minutes, 10 experienced opioid abusers",neither dose of tramadol increased ratings
same,ratings of “feel drug effect” compared to placebo,"[9]; tramadol 100 and 200 mg IV, morphine 10 and 20 mg IV, over 5 minutes",significantly increased
same,ratings on the ARCI-MBG scale,"[9]; tramadol 100 and 200 mg IV, morphine 20 mg IV",neither dose of tramadol increased ratings
same,patients reporting adverse events,[10]; both groups (infusion and bolus),25%
same,effects on blood pressure or heart rate,[10]; infusion and bolus groups,no significant effects
same,fertility or teratogenic effects,[11],no safety concerns
same,doses with behavioral/clinical signs and convulsions,[12],> 25 mg/kg/day
